In one experiment the target is T1, PTPN2 (B16F10.4 cells) (Mus musculus, UniProt Q06180).
T1 construct: HiBiT; host or cells: B16F10.4
T1 sequence (Q06180 1-406): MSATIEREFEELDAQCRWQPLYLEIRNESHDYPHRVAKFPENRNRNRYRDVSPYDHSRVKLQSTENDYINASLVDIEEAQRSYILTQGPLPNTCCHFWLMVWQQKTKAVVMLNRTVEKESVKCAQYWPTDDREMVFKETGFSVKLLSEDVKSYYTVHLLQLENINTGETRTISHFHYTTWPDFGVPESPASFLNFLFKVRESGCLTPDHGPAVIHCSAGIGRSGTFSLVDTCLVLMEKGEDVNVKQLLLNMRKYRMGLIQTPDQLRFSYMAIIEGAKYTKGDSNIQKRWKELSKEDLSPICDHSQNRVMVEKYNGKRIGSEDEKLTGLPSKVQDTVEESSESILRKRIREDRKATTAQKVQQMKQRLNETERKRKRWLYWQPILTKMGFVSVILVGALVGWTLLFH
The experiment in a line: HiBiT Degradation B16F10.4 PTPN2. Format: cell-based. The conditions noted are these: 24.0 hours. (With HiBiT, luminescence reflects the tagged protein that the partner subunit can reach.)

Experiment [1] concerns the target T2, PTPN2 (HiBIT-PTPN2 in 293T.109 cells) (Homo sapiens, UniProt P17706).
T2 construct: expressed in transfected cells; host or cells: 293T.109 (293T WT from ATCC)
T2 sequence (P17706 1-415): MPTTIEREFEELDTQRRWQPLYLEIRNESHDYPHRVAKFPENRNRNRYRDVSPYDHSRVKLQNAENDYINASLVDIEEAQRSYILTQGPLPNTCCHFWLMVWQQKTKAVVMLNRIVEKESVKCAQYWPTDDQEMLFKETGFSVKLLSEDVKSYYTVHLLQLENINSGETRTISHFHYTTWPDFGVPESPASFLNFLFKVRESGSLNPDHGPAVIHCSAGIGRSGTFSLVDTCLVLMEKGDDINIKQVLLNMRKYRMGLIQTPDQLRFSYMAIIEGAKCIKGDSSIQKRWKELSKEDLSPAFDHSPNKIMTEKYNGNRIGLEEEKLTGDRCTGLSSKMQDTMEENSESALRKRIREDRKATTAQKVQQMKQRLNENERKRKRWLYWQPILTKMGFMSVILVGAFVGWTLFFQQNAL
Briefly: HiBiT Degradation 293T.109 PTPN2 (Nano-Glo HiBiT Lytic Assay). In kind it is cell-based. To be noted: 24.0 hours. In a few lines:
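293T.109 cells with ectopic N-terminal HiBiT-tagged PTPN2 (5000/well) exposed to compounds for 24 h at 37 °C, 5% CO2; 11-point half-log titration from 10 μM top, duplicates. Remaining HiBiT-PTPN2 read as luminescence with Nano-Glo HiBiT lytic reagent, normalised to untreated cells (0%) and reagent-free wells.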

In general, DC50 refers to the concentration giving 50% degradation. High values mean a less potent degrader, low ones a more potent degrader.

For `CC1(C)C[C@@H](Nc2cccc(-c3sc(C(=O)O)c(OCC(=O)O)c3Cl)c2)CCN1S(=O)(=O)Cc1cccc(NC(=O)N2CCC(c3ccc4c(c3)n(C3CCOCC3)c(=O)n4C3CCC(=O)NC3=O)CC2)c1` (stereo partly drawn) [Example 159, 3-(carboxymethoxy)-4-chloro-5-(3-(((4S)-1-((3-(4-(1-(2,6-dioxopiperidin-3-yl)-2-oxo-3-(tetrahydro-2H-pyran-4-yl)-2,3-dihydro-1H-benzo[d]imidazol-5-yl)piperidine-1-carboxamido)benzyl)sulfonyl)-2,2-dimethylpiperidin-4-yl)amino)phenyl)thiophene-2-carboxylic acid], the DC50 (on PTPN2 (B16F10.4 cells); in experiment [1]) was 200 to 1000 nM throughout.
Consider `C[C@H]1CN(C(=O)Nc2cccc(CS(=O)(=O)N3CC[C@H](Nc4cccc(-c5sc(C(=O)O)c(OCC(=O)O)c5Cl)c4)CC3(C)C)c2)CCN1c1ccc2c(c1)n(C)c(=O)n2C1CCC(=O)NC1=O` (some centres unmarked) [Example 210], for which the DC50 (on PTPN2 (B16F10.4 cells); in experiment [1]) was 50 to 200 nM each time.
For `CC(C)n1c(=O)n(C2CCC(=O)NC2=O)c2ccc(C3CCN(CC(=O)Nc4cccc(CS(=O)(=O)N5CC[C@H](Nc6cccc(-c7sc(C(=O)O)c(OCC(=O)O)c7Cl)c6)CC5(C)C)c4)CC3)cc21` (stereo partly drawn) [Example 204, 3-(carboxymethoxy)-4-chloro-5-(3-(((4S)-1-((3-(2-(4-(1-(2,6-dioxopiperidin-3-yl)-3-isopropyl-2-oxo-2,3-dihydro-1H-benzo[d]imidazol-5-yl)piperidin-1-yl)acetamido)benzyl)sulfonyl)-2,2-dimethylpiperidin-4-yl)amino)phenyl)thiophene-2-carboxylic acid], the DC50 (at PTPN2 (B16F10.4 cells); in experiment [1]) was 50 to 200 nM each time.
Consider `CC1(C)C[C@@H](Nc2cccc(-c3sc(C(=O)O)c(OCC(=O)O)c3Cl)c2)CCN1S(=O)(=O)Cc1cccc(NC(=O)CCCCCn2cc(CNc3cccc4c3C(=O)N(C3CCC(=O)NC3=O)C4=O)nn2)c1` (stereo partly drawn) [Example 12, 3-(carboxymethoxy)-4-chloro-5-(3-(((4S)-1-((3-(6-(4-(((2-(2,6-dioxopiperidin-3-yl)-1,3-dioxoisoindolin-4-yl)amino)methyl)-1H-1,2,3-triazol-1-yl)hexanamido)benzyl)sulfonyl)-2,2-dimethylpiperidin-4-yl)amino)phenyl)thiophene-2-carboxylic acid], for which the DC50 (at PTPN2 (B16F10.4 cells); in experiment [1]) was 200 to 1000 nM in each case.
With `CC1(C)C[C@@H](Nc2cccc(-c3sc(C(=O)O)c(OCC(=O)O)c3Cl)c2)CCN1S(=O)(=O)Cc1cccc(NC(=O)CNc2ccc3c(c2)CN(C2CCC(=O)NC2=O)C3=O)c1` (stereo partly drawn) [Example 37, 3-(carboxymethoxy)-4-chloro-5-[3-[[(4S)-1-[[3-[[2-[[2-(2,6-dioxo-3-piperidyl)-1-oxo-isoindolin-5-yl]amino]acetyl]amino]phenyl]methylsulfonyl]-2,2-dimethyl-4-piperidyl]amino]phenyl]thiophene-2-carboxylic acid], the DC50 (at PTPN2 (B16F10.4 cells); in experiment [1]) was 200 to 1000 nM each time.
As to `CC1(C)C[C@@H](Nc2cccc(-c3sc(C(=O)O)c(OCC(=O)O)c3Cl)c2)CCN1S(=O)(=O)Cc1cccc(NC(=O)CN2CCC(c3ccc4c(c3)oc(=O)n4C3CCC(=O)NC3=O)CC2)c1` (stereo partly drawn) [Example 70, 3-(Carboxymethoxy)-4-chloro-5-[3-[[(4S)-1-[[3-[[2-[4-[3-(2,6-dioxo-3-piperidyl)-2-oxo-1,3-benzoxazol-6-yl]-1-piperidyl]acetyl]amino]phenyl]methylsulfonyl]-2,2-dimethyl-4-piperidyl]amino]phenyl]thiophene-2-carboxylic acid], the DC50 at PTPN2 (B16F10.4 cells) fell in the range of 200 to 1000 nM; in experiment [1] it was 50 to 200 nM.
In the case of `O=C(O)COc1c(C(=O)O)sc(-c2cccc(NC3CCN(S(=O)(=O)C(c4ccccc4)c4cccc(NC(=O)CNc5ccc6c(c5)C(=O)N(C5CCC(=O)NC5=O)C6=O)c4)CC3)c2)c1Cl` (centres unmarked) [Example 42, 3-(carboxymethoxy)-4-chloro-5-(3-((1-(((3-(2-((2-(2,6-dioxopiperidin-3-yl)-1,3-dioxoisoindolin-5-yl)amino)acetamido)phenyl)(phenyl)methyl)sulfonyl)piperidin-4-yl)amino)phenyl)thiophene-2-carboxylic acid], the results for the DC50 (on PTPN2 (B16F10.4 cells); in experiment [1]) were ≥ 1000 nM and 200 to 1000 nM, respectively.

(Values after patent US20250302815A1, “PROTEIN TYROSINE PHOSPHATASE TARGETING LIGANDS” (CALICO LIFE SCIENCES LLC, priority 2021, published 2025).)
